This note sets out measurements from ChEMBL document CHEMBL1145073, “DNA binding ligands targeting drug-resistant bacteria: structure, activity, and pharmacology” (J Med Chem, 2003).

≈ marks a conversion by molar mass, not a printed value.

Usually MIC stands for the least concentration at which growth counts as inhibited. A low value points to a more susceptible organism.

Common to all, as to type: functional
One experiment has as its system Enterococcus faecalis. The experiment is described as follows: In vitro antimicrobial activity against vancomycin-susceptible Enterococcus faecalis 29212.
Experiment [1] can be described thus: In vitro antimicrobial activity against penicillin-intermediate Streptococcus pneumoniae 49619.
A further experiment has as its system Staphylococcus aureus. The experiment is described as follows: In vitro antimicrobial activity against methicillin resistant Staphylococcus aureus 27660.

Consider `COc1ccc(C(=O)Nc2cc(C(=O)Nc3cc(C(=O)Nc4cc(C(=O)NCCN5CCOCC5)n(C)c4)n(C)c3)n(C)c2)cc1`, for which the MIC is greater than 32 µg/mL against Enterococcus faecalis and 0.125 µg/mL (≈ 0.198 µM) in experiment [1].
As to `Cn1cc(NC(=O)c2cc(NC(=O)c3cc(NC(=O)c4cccnc4)cn3C)cn2C)cc1C(=O)NCCN1CCOCC1`, the MIC is greater than 32 µg/mL with Enterococcus faecalis and 4 µg/mL (≈ 6.65 µM) in experiment [1].
As for `Cn1cc(NC(=O)c2cc(NC(=O)c3cc(NC(=O)c4cc5ccccc5cn4)cn3C)cn2C)cc1C(=O)NCCN1CCCCC1`, the MIC in the experiment on Enterococcus faecalis was found to be 0.062 µg/mL (≈ 0.0954 µM); in experiment [1] it was 0.031 µg/mL (≈ 0.0477 µM); in the experiment on Staphylococcus aureus it was 0.25 µg/mL (≈ 0.385 µM).
Regarding `Cn1cc(NC(=O)c2cc(NC(=O)c3cc(-c4sc(Cl)c(Cl)c4Cl)cn3C)cn2C)cc1C(=O)NCCN1CCOCC1`, the MIC was greater than 32 µg/mL against Enterococcus faecalis, 8 µg/mL (≈ 12 µM) in experiment [1] and 16 µg/mL (≈ 24 µM) against Staphylococcus aureus.
With `Cc1nc2ccncc2cc1C(=O)Nc1cc(C(=O)Nc2cc(C(=O)Nc3cc(C(=O)NCCN4CCOCC4)n(C)c3)n(C)c2)n(C)c1`, the MIC (against Enterococcus faecalis; in experiment [1]) was greater than 32 µg/mL in each case.
Take `Cn1cc(NC(=O)c2cc(NC(=O)c3cc(-c4cc5ccccc5o4)cn3C)cn2C)cc1C(=O)NCCN1CCOCC1`: the MIC in the experiment with Enterococcus faecalis came to 4 µg/mL (≈ 6.69 µM); in experiment [1], 0.5 µg/mL (≈ 0.837 µM); against Staphylococcus aureus, 2 µg/mL (≈ 3.35 µM).
For `CC(C)S(=O)(=O)c1csc(-c2cc(C(=O)Nc3cc(C(=O)Nc4cc(C(=O)NCCN5CCOCC5)n(C)c4)n(C)c3)n(C)c2)c1Cl`, the MIC with Enterococcus faecalis worked out at 4 µg/mL (≈ 5.68 µM); in experiment [1], 1 µg/mL (≈ 1.42 µM); against Staphylococcus aureus it was 4 µg/mL (≈ 5.68 µM).
`Cn1cc(NC(=O)c2cc(NC(=O)c3cc(NC(=O)c4cccs4)cn3C)cn2C)cc1C(=O)NCCN1CCOCC1`: the MIC against Enterococcus faecalis came to 16 µg/mL (≈ 26.4 µM); in experiment [1] it was 2 µg/mL (≈ 3.3 µM).
On to `Cn1cc(NC(=O)c2cc(NC(=O)c3cc(NC(=O)c4cnc5ccccc5c4)cn3C)cn2C)cc1C(=O)NCCN1CCOCC1`, for which the MIC in the experiment on Enterococcus faecalis was greater than 32 µg/mL; in experiment [1], 16 µg/mL (≈ 24.6 µM).
Consider `Cn1cc(NC(=O)c2cc(NC(=O)c3cc(-c4ccccc4Cl)cn3C)cn2C)cc1C(=O)NCCN1CCOCC1`, for which the MIC stood at 16 µg/mL (≈ 27 µM) with Enterococcus faecalis, 32 µg/mL (≈ 54 µM) in experiment [1] and 32 µg/mL (≈ 54 µM) against Staphylococcus aureus.
In the case of `Cn1cc(NC(=O)c2cc(NC(=O)c3cc(-c4ccc(F)cc4)cn3C)cn2C)cc1C(=O)NCCN1CCOCC1`, the MIC against Enterococcus faecalis was found to be 8 µg/mL (≈ 13.9 µM); in experiment [1] it was 2 µg/mL (≈ 3.47 µM); with Staphylococcus aureus it was 16 µg/mL (≈ 27.8 µM).
`Cn1cc(NC(=O)c2cc(NC(=O)c3cc(NC(=O)c4ccc5cnccc5n4)cn3C)cn2C)cc1C(=O)NCCN1CCOCC1`: the MIC was determined as 4 µg/mL (≈ 6.13 µM) with Enterococcus faecalis and 0.25 µg/mL (≈ 0.383 µM) in experiment [1].
Regarding `Cn1cc(NC(=O)c2cc(NC(=O)c3cc(-c4ccc5nonc5c4)cn3C)cn2C)cc1C(=O)NCCN1CCOCC1`, the MIC (against Enterococcus faecalis; in experiment [1]; against Staphylococcus aureus) was 8 µg/mL (≈ 13.3 µM) in each case.
For the molecule `Cc1nnsc1-c1cc(C(=O)Nc2cc(C(=O)Nc3cc(C(=O)NCCN4CCOCC4)n(C)c3)n(C)c2)n(C)c1`, the figures for the MIC (in the experiment with Enterococcus faecalis; in experiment [1]; against Staphylococcus aureus) were 8 µg/mL (≈ 13.8 µM), 2 µg/mL (≈ 3.45 µM) and 16 µg/mL (≈ 27.6 µM), respectively.
On to `Cn1cc(NC(=O)c2cc(NC(=O)c3cc(NC(=O)c4ccc5cccnc5n4)cn3C)cn2C)cc1C(=O)NCCN1CCOCC1`, for which the results for the MIC (in the experiment on Enterococcus faecalis; in experiment [1]) were greater than 32 µg/mL and 2 µg/mL (≈ 3.06 µM), respectively.
`Cn1cc(NC(=O)c2cc(NC(=O)c3cc(-c4cccc(Cl)c4)cn3C)cn2C)cc1C(=O)NCCN1CCOCC1`: the MIC (with Enterococcus faecalis; in experiment [1]; with Staphylococcus aureus) was 8 µg/mL (≈ 13.5 µM) each time.
Take `Cn1cc(NC(=O)c2cc(NC(=O)c3cc(-c4csnn4)cn3C)cn2C)cc1C(=O)NCCN1CCOCC1`: the MIC with Enterococcus faecalis came to 4 µg/mL (≈ 7.07 µM); in experiment [1], 1 µg/mL (≈ 1.77 µM); in the experiment with Staphylococcus aureus, 32 µg/mL (≈ 56.6 µM).
Turning to `Cn1cc(NC(=O)c2cc(NC(=O)c3cc(NC(=O)c4cc5cccc(Cl)c5s4)cn3C)cn2C)cc1C(=O)NCCN1CCOCC1`, the figures for the MIC (in the experiment on Enterococcus faecalis; in experiment [1]) were greater than 32 µg/mL and 2 µg/mL (≈ 2.89 µM), respectively.
Turning to `Cn1cc(NC(=O)c2cc(NC(=O)c3cc(-c4ccncc4)cn3C)cn2C)cc1C(=O)NCCN1CCOCC1`, the MIC in the experiment on Enterococcus faecalis is 32 µg/mL (≈ 57.3 µM); in experiment [1], 2 µg/mL (≈ 3.58 µM); against Staphylococcus aureus, greater than 32 µg/mL.
Regarding `CN(C)CC(C)(C)CNC(=O)c1cc(NC(=O)c2cc(NC(=O)c3cc(NC(=O)c4cc5ccccc5cn4)cn3C)cn2C)cn1C`, the MIC (against Enterococcus faecalis; in experiment [1]; in the experiment on Staphylococcus aureus) was 1 µg/mL (≈ 1.53 µM) each time.
On to `Cn1cc(NC(=O)c2cc(NC(=O)c3cc(-c4ccc5ccccc5c4)cn3C)cn2C)cc1C(=O)NCCN1CCOCC1`, for which the values for the MIC (against Enterococcus faecalis; in experiment [1]; against Staphylococcus aureus) were 4 µg/mL (≈ 6.58 µM), 4 µg/mL (≈ 6.58 µM) and 8 µg/mL (≈ 13.2 µM), respectively.
Regarding `Cn1cc(NC(=O)c2cc(NC(=O)c3cc(NC(=O)c4sc5cc(C(F)(F)F)ccc5c4Cl)cn3C)cn2C)cc1C(=O)NCCN1CCOCC1`, the MIC in the experiment with Enterococcus faecalis came out at 8 µg/mL (≈ 10.5 µM); in experiment [1] it was 4 µg/mL (≈ 5.27 µM).
With `Cn1cc(NC(=O)c2cc(NC(=O)c3cc(NC(=O)c4cc5ccccc5n4C)cn3C)cn2C)cc1C(=O)NCCN1CCOCC1`, the MIC in the experiment on Enterococcus faecalis turned out to be 32 µg/mL (≈ 48.9 µM); in experiment [1], 8 µg/mL (≈ 12.2 µM).
Take `Cn1cc(NC(=O)c2cc(NC(=O)c3cc(-c4ccc(F)cc4F)cn3C)cn2C)cc1C(=O)NCCN1CCOCC1`: the MIC in the experiment on Enterococcus faecalis was determined as 1 µg/mL (≈ 1.68 µM); in experiment [1], 0.125 µg/mL (≈ 0.211 µM); in the experiment on Staphylococcus aureus, 2 µg/mL (≈ 3.37 µM).
Consider `Cn1cc(NC(=O)c2cc(NC(=O)c3cc(NC(=O)c4ccccn4)cn3C)cn2C)cc1C(=O)NCCN1CCOCC1`, for which the MIC (against Enterococcus faecalis; in experiment [1]) was greater than 32 µg/mL throughout.
